According to US8741923B2, “Oxadiazole fused heterocyclic derivatives useful for the treatment of multiple sclerosis” (Merck Serono SA, priority 2008, dated 2014):
pEC50, pKi: −log10 of the molar value.

Assays:
S1P1 [1] = target: T1, S1P1 (Homo sapiens (Human), UniProt P21453); assay: Receptor binding assay ([33P]sphingosine 1-phosphate, SPA) on S1P1 membranes; settings: membranes from CHO cells expressing S1P1
Method: (§1) Receptor binding assay: Membranes were prepared from CHO cells expressing S1P1 or S1P3 for use in ligand and 35S-GTPγS binding studies. Cells were suspended in 50 mM TRIS, pH 7.4, 2 mM EDTA, 250 mM Sucrose (buffer A) and 1× Complete protease inhibitor cocktail (Roche), and disrupted at 4° C. by N2 decompression using a cell disruption bomb (Parr Instrument). Following centrifugation at 1000 RPM for 10 min at 4° C., the supernatant was suspended in buffer A and centrifuged again at 19000 RPM for 60 min at 4° C. The pellet was then suspended in 10 mM HEPES, pH 7.4, 1 mM EDTA, 250 mM Sucrose (Buffer B), and 1× Complete EDTA-free protease inhibitor cocktail and homogenized using a potter. Membranes were flash frozen in liquid N2 and stored at −80° C. [33P]sphingosine 1-phosphate (3000 Ci/mmol; American Radiolabeled Chemicals, Inc.) was added to test compounds in DMSO. Membranes and WGA SPA beads (GE Healthcare) were added to give a final volume of 100 μl in 96-well plates with assay concentrations of 25 μM or 10 μM [33P]sphingosine 1-phosphate (respectively for S1P1 or S1P3), 50 mM HEPES, pH 7.5, 5 mM MgCl2, 100 mM NaCl, 0.4% fatty acid-free BSA, 1-5 μg/well of proteins and 100 μg/well of WGA SPA beads. Binding was performed for 60 min at RT on a shaker and bound radioactivity was measured on a PerkinElmer 1450 MicroBeta counter. Specific binding was calculated by subtracting remaining radioactivity in the presence of 1000-fold excess of unlabeled S1P. Binding data were analyzed using the GraphPad Prism program.

S1P1 [2] = target: T1, S1P1; assay: 35S-GTPγS binding, S1P1 membranes; format: biochemical; settings: membranes from CHO cells expressing S1P1
Method: as §1, with “Membranes and WGA SPA beads (GE Healthcare) were added to give a final volume of 100 μl in 96-well plates with assay concentrations of 25 μM or 10 μM [33P]sphingosine 1-phosphate (respectively for S1P1 or S1P3), 50 mM HEPES, pH 7.5, 5 mM MgCl2, 100 mM NaCl, 0.4% fatty acid-free BSA, 1-5 μg/well of proteins and 100 μg/well of WGA SPA beads. Binding was performed for 60 min at RT on a shaker and bound radioactivity was measured on a PerkinElmer 1450 MicroBeta counter.” left out
(§2) Measurements of 35S-GTPγS Binding:
After 60 min incubation at 30° C. on a shaker, plates were centrifuged for 10 min at 2000 RPM. […] Triplicate samples were averaged and expressed as % response relative to S1P activation in absence of compound (n=2).

S1P3 = S1P3 (Homo sapiens (Human), UniProt Q99500); assay: 35S-GTPγS binding, S1P3 membranes; format: biochemical; settings: membranes from CHO cells expressing S1P3
Method: as §1, §2
Membranes (1 to 10 μg protein) prepared as described above, were incubated in 96-well Scintiplates (PerkinElmer) with test compounds diluted in DMSO, in 180 μl of 20 mM HEPES, pH 7.4, 10 mM MgCl2, 2 μg/well Saponin, 0.2% fatty acid free BSA (Assay buffer), 140 mM NaCl and 1.7 μM GDP. The assay was initiated with the addition of 20 μl of 1.5 nM [35S]-GTPγS (1100 Ci/mmol; GE Healthcare) in assay buffer. After 60 min incubation at 30° C. on a shaker, plates were centrifuged for 10 min at 2000 RPM. Supernatant was discarded and membrane bound radioactivity was measured on a PerkinElmer 1450 MicroBeta counter. Triplicate samples were averaged and expressed as % response relative to S1P activation in absence of compound (n=2).

S1P3, sequence (Q99500 whole entry, species assumed): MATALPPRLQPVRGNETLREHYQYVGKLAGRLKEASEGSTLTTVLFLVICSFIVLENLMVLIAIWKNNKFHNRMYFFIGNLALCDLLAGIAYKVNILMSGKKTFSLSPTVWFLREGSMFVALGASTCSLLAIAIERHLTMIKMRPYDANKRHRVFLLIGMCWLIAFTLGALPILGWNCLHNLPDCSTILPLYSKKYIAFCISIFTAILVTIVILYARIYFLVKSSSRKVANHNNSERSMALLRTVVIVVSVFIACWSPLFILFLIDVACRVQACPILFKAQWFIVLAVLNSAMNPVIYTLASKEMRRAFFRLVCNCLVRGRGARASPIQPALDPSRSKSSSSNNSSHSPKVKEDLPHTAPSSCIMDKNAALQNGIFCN
T1 sequence (P21453 whole entry, species assumed): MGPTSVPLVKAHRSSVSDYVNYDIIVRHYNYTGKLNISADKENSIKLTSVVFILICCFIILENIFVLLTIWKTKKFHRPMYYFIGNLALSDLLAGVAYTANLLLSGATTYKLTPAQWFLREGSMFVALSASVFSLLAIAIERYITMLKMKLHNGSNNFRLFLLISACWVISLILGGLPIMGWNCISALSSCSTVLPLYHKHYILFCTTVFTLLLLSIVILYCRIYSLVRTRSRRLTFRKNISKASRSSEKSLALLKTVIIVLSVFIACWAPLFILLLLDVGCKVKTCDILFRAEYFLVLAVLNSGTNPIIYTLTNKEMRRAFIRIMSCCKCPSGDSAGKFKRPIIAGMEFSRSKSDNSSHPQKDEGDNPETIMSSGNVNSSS

| Structure (SMILES) | pKi (S1P1 [1]) | pEC50 (S1P1 [2]) | pEC50 (S1P3) |
| --- | --- | --- | --- |
| CC1CCCCN1c1ccc(-c2nc(-c3ccc4[nH]ccc4c3)no2)cc1NS(C)(=O)=O (stereo not shown) [Compound 22, N-[5-[3-(1H-indol-5-yl)-1,2,4-oxadiazol-5-yl]-2-(2-methylpiperidin-1-yl)phenyl]methanesulfonamide] | 6.79 | 7.80 |  |
| Cc1ccccc1-c1ccc(-c2nc(-c3ccc4nc[nH]c4c3)no2)cc1CN(C)C [Compound 5, 1-{4-[3-(1H-benzimidazol-6-yl)-1,2,4-oxadiazol-5-yl]-2′-methylbiphenyl-2-yl}-N,N-dimethylmethanamine] | 8.30 | 8.47 |  |
| CC1CCCCN1c1ccc(-c2nc(-c3ccc4c(c3)CNCC4)no2)cc1C(F)(F)F (stereo not shown) [Compound 10, 7-{5-[4-(2-methylpiperidin-1-yl)-3-(trifluoromethyl)phenyl]-1,2,4-oxadiazol-3-yl}-1,2,3,4-tetrahydroisoquinoline] | 8.52 | 7.92 | 6.23 |
| Cc1cc(-c2nc(-c3ccc4[nH]cnc4c3)no2)cnc1N1CCCCC1C (stereo not shown) [Compound 3, 5-{5-[5-methyl-6-(2-methylpiperidin-1-yl)pyridin-3-yl]-1,2,4-oxadiazol-3-yl}-1H-benzimidazole] | 7.42 | 7.03 |  |
| Cc1ccccc1-c1ccc(-c2nc(-c3ccc4[nH]ncc4c3)no2)cc1C [Compound 25, 5-[5-(2,2′-dimethylbiphenyl-4-yl)-1,2,4-oxadiazol-3-yl]-1H-indazole] | 7.96 | 7.49 |  |
| CC1CCCCN1c1ccc(-c2nc(-c3ccc4[nH]cnc4c3)no2)cc1C(F)(F)F (stereo not shown) [Compound 1, 5-{5-[4-(2-methylpiperidin-1-yl)-3-(trifluoromethyl)phenyl]-1,2,4-oxadiazol-3-yl}-1H-benzimidazole] | 8.30 | 7.96 | 6.21 |

Results, then the compound that gave them:

| pKi (S1P1 [1]) | pEC50 (S1P1 [2]) | pEC50 (S1P3) | Structure (SMILES) |
| --- | --- | --- | --- |
| 8.30 | 8.08 | 6.49 | COCc1cc(-c2nc(-c3ccc4[nH]cnc4c3)no2)ccc1-c1ccccc1C [Compound 4, 5-{5-[2-(methoxymethyl)-2′-methylbiphenyl-4-yl]-1,2,4-oxadiazol-3-yl}-1H-benzimidazole] |
| 9.10 | 8.05 |  | CC1CCCCN1c1ccc(-c2nc(-c3ccc4c(c3)CNCC4)no2)cc1C#N (stereo not shown) [Compound 12, 2-(2-methylpiperidin-1-yl)-5-[3-(1,2,3,4-tetrahydroisoquinolin-7-yl)-1,2,4-oxadiazol-5-yl]benzonitrile] |
| 8.40 | 8.22 | 6.80 | CC1CCCCN1c1ccc(-c2nc(-c3ccc4c(c3)CNCC4)no2)cc1NS(C)(=O)=O (stereo not shown) [Compound 11, N-{2-(2-methylpiperidin-1-yl)-5-[3-(1,2,3,4-tetrahydroisoquinolin-7-yl)-1,2,4-oxadiazol-5-yl]phenyl}methanesulfonamide] |
| 9.00 | 8.22 |  | COCc1cc(-c2nc(-c3ccc4c(c3)CNCC4)no2)ccc1-c1ccccc1C [Compound 15, 7-{5-[2-(methoxymethyl)-2′-methylbiphenyl-4-yl]-1,2,4-oxadiazol-3-yl}-1,2,3,4-tetrahydroisoquinoline] |
| 8.52 | 8.40 |  | COc1cc(-c2nc(-c3ccc4[nH]ncc4c3)no2)ccc1-c1cscc1C [Compound 24, 5-{5-[3-methoxy-4-(4-methyl-3-thienyl)phenyl]-1,2,4-oxadiazol-3-yl}-1H-indazole] |
| 8.37 | 7.77 |  | CCC1CCCCN1c1ccc(-c2nc(-c3ccc4[nH]cnc4c3)no2)cc1COC (stereo not shown) [Compound 27, 5-{5-[4-(2-ethylpiperidin-1-yl)-3-(methoxymethyl)phenyl]-1,2,4-oxadiazol-3-yl}-1H-benzimidazole] |
